Laboratory results from patent US11337944B2, “Method of treating colorectal cancers using a PKC inhibitor” (UNIVERSITY OF SOUTH FLORIDA, priority 2016, dated 2022).
Entries after “also recorded” stand apart in the source; their conditions may differ. Like-named read-outs stand apart in the source and are kept apart here.

Key:
PKC-ι [1] = target: T1, PKC-ι (Homo sapiens, UniProt P41743); settings: cited from earlier work
T1 construct: harvested and whole cell extracts were prepared; endogenous in cells; host or cells: HT-29
T1 sequence (P41743 1-596): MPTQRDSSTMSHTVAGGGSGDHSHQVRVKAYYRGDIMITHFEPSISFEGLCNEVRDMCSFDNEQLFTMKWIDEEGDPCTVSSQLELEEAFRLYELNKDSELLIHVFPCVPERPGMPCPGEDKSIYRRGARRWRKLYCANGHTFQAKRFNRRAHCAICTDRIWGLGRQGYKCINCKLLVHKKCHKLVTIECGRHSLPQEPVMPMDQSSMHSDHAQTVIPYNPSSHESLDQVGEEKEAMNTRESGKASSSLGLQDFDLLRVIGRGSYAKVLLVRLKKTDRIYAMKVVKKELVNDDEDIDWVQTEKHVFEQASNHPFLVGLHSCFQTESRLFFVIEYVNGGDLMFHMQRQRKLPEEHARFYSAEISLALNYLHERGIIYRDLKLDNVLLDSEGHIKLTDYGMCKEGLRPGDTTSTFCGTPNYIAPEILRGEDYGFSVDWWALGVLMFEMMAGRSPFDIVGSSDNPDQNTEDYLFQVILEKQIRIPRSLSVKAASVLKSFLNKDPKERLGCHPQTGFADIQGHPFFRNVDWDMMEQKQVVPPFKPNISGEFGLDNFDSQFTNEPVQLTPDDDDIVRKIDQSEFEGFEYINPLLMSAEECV

[2] = test system: HT-29 colon cancer cell line; test: HT-29 colon cancer cell proliferation, viable cell count (Tryphan blue exclusion, scepter); format: cell-based; settings: for HT-29 cell proliferation at 0.25 μM / HT-29 cell proliferation at 1.5 μM: after three days of treatment; for effect on HT-29 cell proliferation with concentration: 24-72 hours, several concentrations; for IC50: HT-29, three days of treatment, read-out: decrease of growth of HT-29 cells by 50 percent (IC50)
Protocol: (§1) The colon cancerous cell line, HT-29 and normal colon epithelial cells, CCD18CO were obtained from American Type Tissue Culture Collection. The HT-29 cells and CCD18CO cells were subculture and maintained in T75 flasks containing McCoy's media and Eagle's Minimum Essential Media respectively, both of the flasks were supplemented with 10% FBS (Fetal Bovine Serum) and 1% antibiotics (Penicillin 10 U/ml and streptomycin 10 mg/ml). Cells were incubated at 37° C. and 5% CO2. After few days of incubation following subculture, cells were used at 70-80% confluency for the experiment.
Cells (3.0×10^4/well) were grown as monolayer on 6 wells plate. […] Cells are then washed (2 ml 2× DPBS buffer), trypsinized, resuspended in McCoy's 5A media and counted with hemocytometer, Scepter & MTT assay.
After starting treatment, viable cells were counted at each 24 hours interval using Tryphan blue exclusion assay and scepter. The data represents n=4 independent experiments.
HT-29 cells were treated with five different concentrations of DNDA for 24-72 hours. After starting treatment, viable cells were counted at each 24 hours interval using Tryphan blue exclusion assay and scepter. The data represents n=4 independent experiments.
HT-29 cells were treated with five different concentrations of ICA-1 for 24-72 hours. After starting treatment, viable cells were counted at each 24 hours interval using Tryphan blue exclusion assay and scepter. The data represents n=4 independent experiments.
HT-29 cells were treated with four different concentrations of ζ-Stat for 24-72 hours. After starting treatment, viable cells were counted at each 24 hours interval using Tryphan blue exclusion assay and scepter. The data represents n=4 independent experiments.

PKC-ζ [3] = target: T2, PKC-ζ (Homo sapiens, UniProt Q05513); settings: cited from earlier work
T2 construct: harvested and whole cell extracts were prepared; endogenous in cells; host or cells: HT-29
T2 sequence (Q05513 1-592): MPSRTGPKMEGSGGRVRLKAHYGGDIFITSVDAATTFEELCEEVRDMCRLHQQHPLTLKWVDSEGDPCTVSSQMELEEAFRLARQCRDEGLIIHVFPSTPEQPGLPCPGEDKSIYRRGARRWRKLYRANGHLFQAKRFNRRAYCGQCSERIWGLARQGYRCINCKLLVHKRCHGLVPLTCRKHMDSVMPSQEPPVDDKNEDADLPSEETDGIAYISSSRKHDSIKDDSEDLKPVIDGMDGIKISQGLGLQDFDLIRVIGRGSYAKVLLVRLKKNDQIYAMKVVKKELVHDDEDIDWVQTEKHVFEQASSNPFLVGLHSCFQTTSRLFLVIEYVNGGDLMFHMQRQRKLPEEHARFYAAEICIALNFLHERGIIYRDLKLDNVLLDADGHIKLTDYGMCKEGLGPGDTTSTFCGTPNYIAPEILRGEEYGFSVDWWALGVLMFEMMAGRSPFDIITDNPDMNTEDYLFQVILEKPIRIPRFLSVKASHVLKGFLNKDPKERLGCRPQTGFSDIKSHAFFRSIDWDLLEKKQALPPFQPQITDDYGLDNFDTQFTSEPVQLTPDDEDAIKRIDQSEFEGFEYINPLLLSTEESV

[4] = test system: CCD18CO normal colon epithelial cell line; test: MTT assay on CCD18CO normal colon epithelial cells; format: cell-based
Protocol: as §1
To establish the efficacy of ζ-Stat as a specific inhibitor of PKC-ζ, the effect of ζ-Stat on CCD18CO normal colon epithelial cell line was tested. CCD18CO normal epithelial cell line cells were treated with four different concentrations of ζ-Stat for three consecutive days followed by incubation with MTT reagent and taking absorbance reading at each half an hour interval for three hours at 577 nm using microplate reader. The data represents n=3 independent experiments.
The percentage of inhibition of CCD18C0 cell growth was measured after three hours of MTT incubation. […] The data represents n=3 independent replicates (FIG. 19).

PKC-ι [5] = target: T1, PKC-ι; test: Western blot of PKC-ι expression and phosphorylation in HT-29 cells; format: cell-based; settings: HT-29, 72 hours, increasing concentrations, immunoblot
Protocol: (§2) Cells were cultured (9.0×10^4) in 100 mm cell culture flasks. […] Equal volume of sterile water (vehicle control) as the volume of drug was added in the control also. Treatment was continued for three consecutive days. Total cell-lysates were prepared and subjected to western blot analysis for aPKC analysis.
(§3) Because PKC-ι and PKC-ζ are homologous (84%) in terms of amino acids sequence of their catalytic domain [7], the specificity of the effect of ζ-Stat on PKC-ζ was tested by performing western blot analysis. HT-29 colorectal cancerous cells were treated with seven different concentrations of ζ-Stat for 72 hours, harvested and whole cell extracts were prepared. Equal amounts (40 μg) of protein were loaded on SDS-PAGE followed by immunoblotting for pPKC-ι(T555), PKC-ι, pPKC-ζ(T410), PKC-ζ, pAKT(S473) and β-actin to examine the effect of ζ-Stat on those protein levels. Data represents n=3 independent observations.

[6] = test system: HT-29 colorectal cancer cells; test: Western blot of survival and apoptotic proteins (Caspase-3, BCL-XL, Survivin) in HT-29 cells; format: cell-based; settings: HT-29, 7 μM, 72 hours, immunoblot
Protocol: HT-29 colorectal cancer cells were treated with 7 μM ICA-I or 7 μM ζ-Stat for 72 hours, harvested and whole cell lysates were prepared. Equal amounts (40 μg) of protein were loaded on SDS-PAGE followed by immunoblotting for Caspase-3, BCL-XL, Survivin and β-actin to determine the effects of specific aPKC inhibition on survival and apoptotic proteins. Data represents n=3 independent experiments.

[7] = test system: CCD18CO normal colorectal cells; test: Western blot of survival and apoptotic proteins in CCD18CO normal cells; format: cell-based; settings: 7 μM, 72 hours, immunoblot
Protocol: CCD18CO cells were treated with 7 μM ICA-I or 7 μM ζ-Stat, respectively, for 72 hours, harvested and whole cell lysates were prepared. Equal amounts (40 μg) of protein were loaded on SDS-PAGE followed by immunoblotting for PKC-ι, PKC-ζ, Caspase-3, BCL-XL, and β-actin to see the effect of specific aPKC inhibition on survival and apoptotic proteins. Data represents n=3 independent experiments.

PKC-ζ [8] = target: T2, PKC-ζ; test: Western blot of PKC-ζ expression and phosphorylation in HT-29 cells; format: cell-based; settings: HT-29, 72 hours, increasing concentrations, immunoblot
Protocol: as §2, §3

SMILES | inhibition of PKC-ι (PKC-ι [1]) | HT-29 cell proliferation at 0.25 μM [2] | HT-29 cell proliferation at 1.5 μM [2] | effect on HT-29 cell proliferation with concentration [2] | IC50 [2] [nM] | inhibition of PKC-ζ (PKC-ζ [3]) | effect on normal colon epithelial cells CCD18CO (cell number / toxicity) ([4]; 1.0-3.0 μM, three consecutive days, MTT) | percent inhibition of CCD18CO cell growth ([4]; after three hours of MTT incubation) | IC50 ([2]; Homo sapiens, 72 h) [nM] | inhibition of HT-29 cells ([2]; treatment over three days) | effect on PKC-ι (PKC-ι [5]) | level of pro-survival proteins [6] | toxicity to normal epithelial cells CCD18CO [7] | level / phosphorylation of PKC-ζ (PKC-ζ [8])
Nc1c(S(=O)(=O)O)cc2cc(S(=O)(=O)O)ccc2c1N [DNDA, 3,4, diamino-2,7-naphthalene disulfonic acid] | about 20% | slight decrease in proliferation | dramatic decrease in proliferation | decrease colon cancer cell proliferation in a dose-dependent manner | ~780 | about 80% |  |  |  |  |  |  |  | 
O=S(=O)(O)c1cc(O)c2c(S(=O)(=O)O)cc(S(=O)(=O)O)cc2c1 [ζ-Stat, 8-hydroxy-1,3,6-naphthalenetrisulfonic acid] |  |  | dramatic decrease in cell proliferation | inhibits colon cancer cell proliferation in a dose-dependent manner |  |  | not toxic; also recorded: did not change | less than 10% | ~1400 | about 60% | without affecting PKC-ι; also recorded: specifically inhibits PKC-ζ not PKC-ι | decreases the level of pro-survival proteins | not toxic | decrease the levels of total and phosphorylated PKC-ζ; also recorded: selective decrease in the phosphorylation of PKC-ζ
NC(=O)c1ncn(C2CC(COP(=O)(O)O)C(O)C2O)c1N (stereo not drawn) [ICA-1, [4-(5-amino-4-carbamoylimidazol-1-yl)-2,3-dihydroxycyclopentyl] methyl dihydrogen phosphate] |  | slight increase in cell proliferation | dramatic decrease in cell proliferation | decrease colon cancer cell proliferation in a dose-dependent manner | ~950 |  |  |  |  |  |  |  | not toxic | 
